Reference: patent US10633348B2, “Methods to treat lymphoplasmacytic lymphoma” (Dana-Farber Cancer Institute, Inc., priority 2013, dated 2020)
pEC50: −log10 of the molar value. Read-outs that look alike come from different tables or passages of the source.

Assays:
Assay type in all cases: cell-based
OCI-Ly7 = experiment: CellTiter-Glo cell viability assay; conditions: Homo sapiens, 72 hours
TMD8 = experiment: CellTiter-Glo cell viability assay; conditions: Homo sapiens, 72 hours
[1] = tested on: 260 kinases in A375 cells; conditions: 1.0 μM
Mec1 = experiment: CellTiter-Glo cell viability assay; conditions: Homo sapiens, 72 hours
OCI-Ly3 = experiment: CellTiter-Glo cell viability assay; conditions: Homo sapiens, OCI-Ly3, 72 h
CAMK1D = tested on: CAMK1D
CAMK2D = tested on: CAMK2D
CDK11, CDK8 = experiment: KiNativ kinase profiling in A375 cells; conditions: Lys2, SEQ ID NO 20, 1.0 μM
CDK6 = tested on: CDK6
CDK9 = tested on: CDK9
DGKQ = tested on: DGKQ
EPHB1 = tested on: EPHB1
EPHB2 = tested on: EPHB2
ERK5 = tested on: ERK5
FRAP = tested on: FRAP
ILK = tested on: ILK
IRAK4 = tested on: IRAK4
JNK1, JNK2, JNK3 = experiment: KiNativ kinase profiling in A375 cells; conditions: Lys2, SEQ ID NO 67, 1.0 μM
KHS1 = tested on: KHS1
MAP2K3 = tested on: MAP2K3
MAP3K2 = tested on: MAP3K2
MLK3 = tested on: MLK3
MPSK1 = tested on: MPSK1
MSK1 domain1 = tested on: MSK1 domain1
MSK2 domain1 = tested on: MSK2 domain1
MST1 = tested on: MST1
MST4 = tested on: MST4
MST4, YSK1 = experiment: KiNativ kinase profiling in A375 cells; conditions: Lys2, SEQ ID NO 114, 1.0 μM
NEK7 = tested on: NEK7
NEK8 = tested on: NEK8
PEK = tested on: PEK
PIK3C2B = tested on: PIK3C2B
PIK3CG = tested on: PIK3CG
RSK2 domain1 = tested on: RSK2 domain1
SGK3 = tested on: SGK3
SLK = tested on: SLK
STK33 = tested on: STK33
TBK1 = tested on: TBK1
TLK1 = tested on: TLK1
ZC2/TNIK = tested on: ZC2/TNIK

## CCN1CCN(Cc2ccc(NC(=O)c3ccc(C)c(Oc4ccnc(Nc5cnn(C)c5)n4)c3)cc2C(F)(F)F)CC1 [(A-14), N-(4-((4-ethylpiperazin-1-yl)methyl)-3-(trifluoromethyl)phenyl)-4-methyl-3-((2-((1-methyl-1H-pyrazol-4-yl)amino)pyrimidin-4-yl)oxy)benzamide]
OCI-Ly7
  pEC50: 6.76
TMD8
  pEC50: 7.35
[1]; AKT2, AKT3, ATP Loop, SEQ ID NO 204
  KiNativ inhibition: −19.7%
[1]; AMPKa1, AMPKa2, Lys2, SEQ ID NO 205
  KiNativ inhibition: −17.5%
[1]; AurA, AurB, AurC, ATP Loop, SEQ ID NO 211
  KiNativ inhibition: −2.4%
[1]; CDK11, CDK8, Lys2, SEQ ID NO 224
  KiNativ inhibition: 49.2%
[1]; CK1g1, CK1g2, CK1g3, ATP Loop, SEQ ID NO 235
  KiNativ inhibition: 1.3%
[1]; CK1d, CK1e, Lys2, SEQ ID NO 234
  KiNativ inhibition: −9.3%
[1]; JNK1, JNK2, JNK3, Lys2, SEQ ID NO 276
  KiNativ inhibition: 31.5%
[1]; KSR1, KSR2, Activation Loop, SEQ ID NO 280
  KiNativ inhibition: 1.4%
[1]; MAP2K1, MAP2K2, Lys1, SEQ ID NO 289
  KiNativ inhibition: 9.4%
[1]; MAP2K1, MAP2K2, Lys2, SEQ ID NO 290
  KiNativ inhibition: 2.2%
[1]; MAP3K2, MAP3K3, Lys2, SEQ ID NO 299
  KiNativ inhibition: 8.4%
[1]; MARK2, MARK3, Lys2, SEQ ID NO 304
  KiNativ inhibition: −15.6%
[1]; MARK3, MARK4, Lys1, SEQ ID NO 306
  KiNativ inhibition: −7.5%
[1]; MAST1, MAST2, Lys2, SEQ ID NO 308
  KiNativ inhibition: −24.8%
[1]; MER, TYRO3, Activation Loop, SEQ ID NO 313
  KiNativ inhibition: 21.2%
[1]; MST4, YSK1, Lys2, SEQ ID NO 325
  KiNativ inhibition: −2.4%
[1]; MYO3A, MYO3B, Lys2, SEQ ID NO 326
  KiNativ inhibition: 22.9%
[1]; NEK6, NEK7, Lys2, SEQ ID NO 333
  KiNativ inhibition: −1.8%
[1]; PCTAIRE2, PCTAIRE3, Lys1, SEQ ID NO 346
  KiNativ inhibition: 72.9%
[1]; PI4KA, PI4KAP2, ATP, SEQ ID NO 353
  KiNativ inhibition: 2.1%
[1]; PKCa, PKCb, Lys2, SEQ ID NO 364
  KiNativ inhibition: −86.4%
[1]; ROCK1, ROCK2, Lys2, SEQ ID NO 377
  KiNativ inhibition: −0.2%
[1]; RSK1 domain1, RSK2 domain1, RSK3 domain1, Lys2, SEQ ID NO 379
  KiNativ inhibition: −25.1%
[1]; SRPK1, SRPK2, Lys1, SEQ ID NO 391
  KiNativ inhibition: −38.7%
[1]; TAO1, TAO3, Lys2, SEQ ID NO 396
  KiNativ inhibition: 87.1%
[1]; Wnk1, Wnk2, Wnk3, Lys2, SEQ ID NO 406
  KiNativ inhibition: −1.1%
[1]; Wnk1, Wnk2, ATP Loop, SEQ ID NO 405
  KiNativ inhibition: 11.2%
[1]; ZC1/HGK, ZC2/TNIK, ZC3/MINK, Lys2, SEQ ID NO 410
  KiNativ inhibition: 57.5%
[1]; p38d, p38g, Lys2, SEQ ID NO 341
  KiNativ inhibition: 51.5%

## CCN1CCN(Cc2ccc(NC(=O)c3ccc(C)c(Oc4cc(N)ncn4)c3)cc2C(F)(F)F)CC1 [(A-4), 3-((6-aminopyrimidin-4-yl)oxy)-N-(4-((4-ethylpiperazin-1-yl)methyl)-3-(trifluoromethyl)phenyl)-4-methylbenzamide]
Mec1
  pEC50: 4.84
OCI-Ly3
  pEC50: 4.50
CAMK1D
  inhibition of kinase labeling: −6.0%
CAMK2D
  inhibition of kinase labeling: −8.1%
CDK11, CDK8
  inhibition of kinase labeling: 50.0%
CDK6
  inhibition of kinase labeling: 13.1%
CDK9
  inhibition of kinase labeling: −16.2%
DGKQ
  inhibition of kinase labeling: 11.0%
EPHB1
  inhibition of kinase labeling: −1.7%
EPHB2
  inhibition of kinase labeling: −12.8%
ERK5
  inhibition of kinase labeling: 25.9%
FRAP
  inhibition of kinase labeling: −7.5%
ILK
  inhibition of kinase labeling: 5.2%
IRAK4
  inhibition of kinase labeling: 1.9%
JNK1, JNK2, JNK3
  inhibition of kinase labeling: 77.2%
KHS1
  inhibition of kinase labeling: 15.8%
MAP2K3
  inhibition of kinase labeling: −1.0%
MAP3K2
  inhibition of kinase labeling: 4.2%
MLK3
  inhibition of kinase labeling: 20.7%
MPSK1
  inhibition of kinase labeling: 16.1%
MSK1 domain1
  inhibition of kinase labeling: 5.7%
MSK2 domain1
  inhibition of kinase labeling: −64.9%
MST1
  inhibition of kinase labeling: −4.7%
MST4
  inhibition of kinase labeling: 6.2%
MST4, YSK1
  inhibition of kinase labeling: 4.6%
NEK7
  inhibition of kinase labeling: −7.2%
NEK8
  inhibition of kinase labeling: −11.4%
PEK
  inhibition of kinase labeling: 9.4%
PIK3C2B
  inhibition of kinase labeling: 24.0%
PIK3CG
  inhibition of kinase labeling: −21.1%
RSK2 domain1
  inhibition of kinase labeling: −3.3%
SGK3
  inhibition of kinase labeling: −10.2%
SLK
  inhibition of kinase labeling: −14.3%
STK33
  inhibition of kinase labeling: 12.9%
TBK1
  inhibition of kinase labeling: 18.2%
TLK1
  inhibition of kinase labeling: 4.9%
ZC2/TNIK
  inhibition of kinase labeling: 23.9%
